Entries after “also recorded” stand apart in the source; their conditions may differ. Where two headings read alike, the source gives them in different places. Marks after values point to notes of the source that are not given here.
How the values were obtained:
[1] = tested on: SH-SY5Y cells; assay: Cytotoxicity CellTiter-Glo; format: cell-based, human
[2] = tested on: A2780 cells; assay: Cytotoxicity CellTiter-Glo; format: cell-based, human; conditions: read-out: IC50 (50% growth inhibition); A2780, Ovary; 72 hours
[3] = tested on: A204 cells; assay: Cytotoxicity CellTiter-Glo; format: cell-based, human; conditions: A204, Rhabdomyosarcoma
[4] = tested on: PE01 cells; assay: Cytotoxicity CellTiter-Glo; format: cell-based, human; conditions: read-out: IC50 (50% growth inhibition); PE01, Ovary; 72 hours
[5] = tested on: MG-63 cells; assay: Cytotoxicity CellTiter-Glo; format: cell-based, human; conditions: MG-63, Osteosarcoma
[6] = tested on: DU145 cells; assay: Cytotoxicity CellTiter-Glo; format: cell-based, human; conditions: read-out: IC50 (50% growth inhibition); DU145, Prostate; 72 hours
Procedure: (§1) Human cancer cell lines were purchased from UCSF Cell Culture Facility (CCF) or obtained through Material Transfer.
(§2) The range of platinum concentrations used in the studies are 5 μM-100 μM. After 72 hours of treatment, the medium were removed and replaced with 50 μL of the media plus 50 μL of the CellTiterGlo reagent. The number of viable cells in culture will be determined based on quantitation of the ATP present, which is an indicator of the number of active cells. Concentration response graphs were generated for each compound using GraphPad Prism software. The graphs were analyzed using a curve fit for sigmoid dose-response, and IC50 values were derived. The results were expressed as mean IC50 values with the standard error of the mean.

[7] = tested on: AsPC1 cells; assay: Cytotoxicity CellTiter-Glo; format: cell-based, human; conditions: read-out: IC50 (50% growth inhibition); AsPC1, Pancreas; 72 hours
Procedure: as §1, §2

[8] = tested on: HT29 cells; assay: Cytotoxicity CellTiter-Glo; format: cell-based, human; conditions: read-out: IC50 (50% growth inhibition); HT29, Colon; 72 hours
Procedure: as §1, §2

[9] = tested on: HCT116 cells; assay: Cytotoxicity CellTiter-Glo; format: cell-based, human; conditions: read-out: IC50 (50% growth inhibition); HCT116, Colon; 72 hours
Procedure: as §1, §2

[10] = tested on: H226 cells; assay: Cytotoxicity CellTiter-Glo; format: cell-based, human; conditions: read-out: IC50 (50% growth inhibition); H226, Non-small cell squamous; 72 hours
Procedure: as §1, §2

[11] = tested on: PC3 cells; assay: Cytotoxicity CellTiter-Glo; format: cell-based, human; conditions: read-out: IC50 (50% growth inhibition); PC3, Prostate; 72 hours
Procedure: as §1, §2

[12] = tested on: SAOS-2 cells; assay: Cytotoxicity CellTiter-Glo; format: cell-based, human; conditions: SAOS-2, Osteosarcoma
[13] = tested on: RMS13 cells; assay: Cytotoxicity CellTiter-Glo; format: cell-based, human; conditions: RMS13, Rhabdomyosarcoma
[14] = tested on: SHEP cells; assay: Cytotoxicity CellTiter-Glo; format: cell-based, human
[15] = tested on: Kelly cells; assay: Cytotoxicity CellTiter-Glo; format: cell-based, human
[16] = tested on: OVCAR2 cells; assay: Cytotoxicity CellTiter-Glo; format: cell-based, human; conditions: read-out: IC50 (50% growth inhibition); OVCAR2, Ovary; 72 hours
[17] = tested on: U251 cells; assay: Cytotoxicity CellTiter-Glo; format: cell-based, human
[18] = tested on: SNF539 cells; assay: Cytotoxicity CellTiter-Glo; format: cell-based, human
[19] = tested on: T98G cells; assay: Cytotoxicity CellTiter-Glo; format: cell-based, human
[20] = tested on: U87MG cells; assay: Cytotoxicity CellTiter-Glo; format: cell-based, human
[21] = tested on: U-2 OS cells; assay: Cytotoxicity CellTiter-Glo; format: cell-based, human
[22] = tested on: SNB75 cells; assay: Cytotoxicity CellTiter-Glo; format: cell-based, human
[23] = tested on: A2780-CP cells; assay: Cytotoxicity CellTiter-Glo; format: cell-based, human; conditions: read-out: IC50 (50% growth inhibition), Ovary, 72 hours
[24] = Maximum tolerated dose study: blood chemistry test (Table 7); conditions: mouse, in vivo, iv, 5 mg/kg
Procedure: The mice used in MTD were given standard chow devoid of added folic acid (low folate diet) (See, Leamon C P et al., J. Pharmacol. Exp. Ther. 327: 918-925). […] Therefore we also designed a MTD study in mice treated with low folate diet. Food consumption on the day before injection (Day −1) was recorded and then it was monitored every other day. […] Blood for clinical chemistry was collected if possible. Liver, kidney and bone marrow were collected. One side of each tissue (except bone marrow) will be fixed in 4-10% formalin for future histology analysis, and the rest of tissue will be cut into pieces, snap frozen, and stored at −80° C. until analysis. Blood samples for clinical chemistry were centrifuged at 8000 rpm for 10 min at 4° C. within 1 hour of collection. Plasma was collected into 1.5 mL eppendorf tubes and stored at −80° C. until analysis. The measured parameters were alanine transaminase (ALT), aspartate transaminase (AST), alkaline phosphatase (ALP), total bilirubin, glucose, blood urea nitrogen (BUN), creatinine, and electrolytes. All experiments were housed in a virus-free, temperature controlled facility on a 12-h light-dark cycle.

[25] = tested on: A673 cells; assay: Cytotoxicity CellTiter-Glo; format: cell-based, human
[26] = tested on: RMS13 rhabdomyosarcoma xenografts; assay: RMS13 rhabdomyosarcoma xenograft in nu/nu mice; format: in vivo, mouse
Procedure: (§3) The xenograft studies were performed by subcutaneous injection of SK-N-DZ (neuroblastoma, 30×10^6 cells/animal) and RMS13 (rhabdomyosarcoma, 20×10^6 cells/animal) in right flank of the male Charles River Laboratories nu/nu mice (7-8 weeks old, weight ˜20 g). Mice were treated by intravenous tail vein injection once a week for 4 weeks. The tumor sizes and body weights were monitored twice a week. Tumor volumes were calculated according to the following formula: volume=height×[…]×length×0.5236.

[27] = tested on: PE04 cells; assay: Cytotoxicity CellTiter-Glo; format: cell-based, human; conditions: read-out: IC50 (50% growth inhibition); PE04, Ovary; 72 hours
[28] = tested on: SK-N-DZ neuroblastoma xenografts; assay: SK-N-DZ neuroblastoma xenograft in nu/nu mice; format: in vivo, mouse
Procedure: as §3

[29] = tested on: genomic DNA; assay: Platinum-DNA adducts by ICP-MS in HEK293 cells; format: cell-based, human; conditions: 10 μM, 2 hours
Procedure: Method to quantify platinum-DNA adducts by ICP-MS has been previously described (5,6). In brief, HEK293 cells were seeded in 6-well poly-D-lysine plate (cell density=0.5×10^6 cells/well). […] After 2 hours, the cells were washed twice with cold HBBS. The platinum content associated with genomic DNA was determined as described elsewhere. Genomic DNA was isolated from the cell pellets using Genomic DNA purification kit (Promega) and the DNA-bound platinum was determined by ICP-MS, which was normalized to total DNA content (determined by absorption spectrometry at 260 nm).

[30] = tested on: HeLa R1-11 (SLC46A1)
[31] = tested on: HeLa R1-11 (SLC19A1)
[32] = read-out: IC50 (50% growth inhibition), Neuroblastoma, 72 hours
[33] = read-out: IC50 (50% growth inhibition), 72 hours
[34] = read-out: IC50 (50% growth inhibition), Brain, 72 hours

With N.N.[Cl][Pt][Cl] [Cisplatin, cisplatin, reference compound] the GI50 ([1]; Neuroblastoma) was 1 ± 0.6 µM, the IC50 [1, 32] was 1 ± 0.6 µM and the IC50 [2] was 1.2 ± 0.2 µM. For the same compound, the GI50 [3] was 4.6 ± 4.4 µM, the IC50 [3, 33] was 4.6 ± 4.4 µM and the IC50 [4] was 0.6 ± 0.4 µM. For the same compound, the GI50 [5] was 5.1 ± 2.3 µM, the IC50 [5, 33] was 5.1 ± 2.3 µM and the IC50 [6] was 0.5 ± 0.01 µM. The IC50 [7] was 2.9 ± 0.03 µM, the IC50 [8] was 2.3 ± 0.4 µM and the IC50 [9] was 2.1 ± 0.3 µM. The IC50 [10] was 13.8 ± 2.8 µM, the IC50 [11] was 2.5 ± 0.3 µM and the GI50 [12] was 20.5 ± 9.9 µM. For the same compound, the IC50 [12, 33] was 20.5 ± 9.9 µM, the GI50 [13] was 2.5 ± 0.5 µM and the IC50 [13, 33] was 2.5 ± 0.5 µM. For the same compound, the GI50 ([14]; Neuroblastoma) was 4.4 ± 2.4 µM, the IC50 [14, 32] was 4.4 ± 2.4 µM and the GI50 ([15]; Neuroblastoma) was 7 ± 5 µM. For the same compound, the IC50 [15, 32] was 7 ± 5 µM, the IC50 [16] was 3.3 ± 1.6 µM and the IC50 ([17]; read-out: IC50 (50% growth inhibition), U251, Brain, 72 hours) was 11.2 ± 10.8 µM. The IC50 ([18]; read-out: IC50 (50% growth inhibition), SNF539, Brain, 72 hours) was 6.5 ± 7.2 µM, the IC50 [19, 34] was 27.5 µM and the IC50 [20, 34] was 16.2 ± 12.6 µM. It also gave a GI50 ([21]; Osteosarcoma) of 59.3 ± 9 µM, an IC50 ([21]; read-out: IC50 (50% growth inhibition), Osteosarcoma, 72 hours) of 59.3 ± 9 µM and an IC50 ([22]; read-out: IC50 (50% growth inhibition), SNB75, Brain, 72 hours) of 15.4 ± 12.6 µM. For the same compound, the IC50 [23] was 8.6 ± 2.1 µM, the Cl [24] was 102.33* and the GI50 ([25]; A673, Ewing's sarcoma) was 0.4 ± 0.3 µM. The IC50 ([25]; read-out: IC50 (50% growth inhibition), A673, Ewing's Sarcoma, 72 hours) was 0.4 ± 0.3 µM, the “tumor volume / tumor growth” value ([26]; RMS13 rhabdomyosarcoma xenograft, 5 mg/kg i.v. once a week for 4 weeks) was “inhibited tumor growth” and the survival ([26]; RMS13 xenograft model, 5 mpk) was “increase survival rate”. The IC50 [27] was 4.9 ± 2 µM, the “tumor volume / tumor growth” value ([28]; SKNDZ neuroblastoma xenograft, 5 mg/kg i.v. once a week for 4 weeks) was “inhibited tumor growth” and the survival ([28]; SKNDZ xenograft model, 5 mpk, 5 mg/kg) was “significant difference in survival; also recorded: increase survival rate”.
With CN(Cc1cnc2nc(N)nc(N)c2n1)c1ccc(C(=O)N[C@@H](CCC(=O)O)C(=O)O)cc1 [Methotrexate, methotrexate, reference compound] the “platinum content associated with genomic DNA (platinum-DNA adducts)” value [29] was “did not have strong intensity (binding)”.
For CN(Cc1cnc2nc(N)nc(N)c2n1)c1ccc(C(=O)NC(CCC(=O)O)C(=O)O)cc1.[Cl][Pt][Cl] (stereo not shown) [SM-69B], the IC50 [30] was 0.702 µM, the IC50 [31] was 0.109 µM and the IC50 ([17]; read-out: IC50 ± S.D. (50% growth inhibition), U251, Brain - High grade, + 1 mM Folic Acid) was 18 ± 1.4 µM. The IC50 ([17]; read-out: IC50 ± S.D. (50% growth inhibition), U251, Brain - High grade, two independent experiments) was 0.87 ± 0.13 µM, the IC50 ([18]; read-out: IC50 ± S.D. (50% growth inhibition), SF539, Brain - High grade, + 1 mM Folic Acid) was 43.2 ± 12.9 µM and the IC50 ([18]; read-out: IC50 ± S.D. (50% growth inhibition), SF539, Brain - High grade, two independent experiments) was 0.46 ± 0.04 µM. For the same compound, the IC50 ([19]; read-out: IC50 ± S.D. (50% growth inhibition), Brain - High grade, + 1 mM Folic Acid) was 5.3 ± 1.2 µM, the IC50 ([19]; read-out: IC50 ± S.D. (50% growth inhibition), Brain - High grade, two independent experiments) was 0.31 ± 0.05 µM and the IC50 ([20]; read-out: IC50 ± S.D. (50% growth inhibition), Brain - Low grade, + 1 mM Folic Acid) was 13.9 ± 11.1 µM. For the same compound, the IC50 ([20]; read-out: IC50 ± S.D. (50% growth inhibition), Brain - Low grade, two independent experiments) was 0.96 ± 0.09 µM, the IC50 ([22]; read-out: IC50 ± S.D. (50% growth inhibition), SNB75, Brain - High grade, + 1 mM Folic Acid) was 63.3 ± 3.3 µM and the IC50 ([22]; read-out: IC50 ± S.D. (50% growth inhibition), SNB75, Brain - High grade, two independent experiments) was 11.1 ± 2.1 µM.

Source: patent US10392412B2, “Platinum anticancer agents” (THE REGENTS OF THE UNIVERSITY OF CALIFORNIA, priority 2015, dated 2019)
